# From patent US8703922B2, “Low-viscosity liquid crystal compound” (Chemgenesis Incorporated, priority 2009, dated 2014)
# Legend:
# Type in all cases: physicochemical
# [1] = Liquid crystal formation in compound/water system, analysed by small-angle X-ray scattering (SAXS); settings: room temperature (25° C.); for Type of liquid crystal formed (SAXS peak ratio): 50 wt % (water-excess condition); for Lattice constant (ac) of the cubic liquid crystal: SAXS
# From the text: Whether or not a liquid crystal structure has a cubic lattice may be determined by a small-angle X-ray scattering (SAXS) method, for the purpose of confirming whether or not it is cubic liquid crystal. First, an amphipathic compound/water system sample with a predetermined concentration can be added to an X-ray capillary tube made of quartz, for example, and the capillary tube is sealed with an oxy-fuel burner, and subjected to SAXS assay.
# Ratio of Pn3m Cubic Liquid Crystal: √{square root over (2)}: √{square root over (3)}: √{square root over (4)}: √{square root over (6)}: √{square root over (8)}: √{square root over (9)}: √{square root over (10)}: , , , [Mathematical expression 1] Ratio of Ia3d Cubic Liquid Crystal: √{square root over (3)}: √{square root over (4)}: √{square root over (7)}: √{square root over (8)}: √{square root over (10)}: √{square root over (11)}: , , , [Mathematical expression 2] Ratio of Im3m Cubic Liquid Crystal: √{square root over (2)}: √{square root over (4)}: √{square root over (6)}: √{square root over (8)}: √{square root over (10)}: √{square root over (12)}: √{square root over (14)}: , , , [Mathematical expression 3]
# A peak value is calculated from SAXS data and then the reciprocal ratio is found therefrom according to a method known by persons skilled in the art, so that the space group and the lattice constant can be easily determined.
# Mono-O-(5,9,13,17-tetramethyloctadec-4-enoyl)pentaerythritol and pure water were introduced into a mixing device at the concentration of 50 wt % Mono-O-(5,9,13,17-tetramethyloctadec-4-enoyl)pentaerythritol (water-excess condition), and incubation thereof was carried out while performing 100 or more times of mixing operations at room temperature (25° C.) over the period of 24 hours. Thus, a homogeneously mixed sample of mono-O-(5,9,13,17-tetramethyloctadec-4-enoyl)pentaerythritol/water system was obtained. This sample of mono-O-(5,9,13,17-tetramethyloctadec-4-enoyl)pentaerythritol/water system appeared to be a white turbid gel composition.
# Subsequently, the thus obtained sample of mono-O-(5,9,13,17-tetramethyloctadec-4-enoyl)pentaerythritol/water system was confirmed to be a cubic liquid crystal by small-angle x-ray scattering (SAXS). The sample of mono-O-(5,9,13,17-tetramethyloctadec-4-enoyl)pentaerythritol/water system was introduced into a quartz X-ray capillary tube, the tip of the capillary was sealed using an oxygen burner, and the capillary tube was subjected to the SAXS analysis. The NANO-Viewer nano-scale X-ray structure analysis equipment (Rigaku) was used for SAXS analysis. SAXS analysis was performed by X-ray irradiation at room temperature (25° C.), 40 kV, 50 mA, wavelength λ=0.1542 nm (Cu-Kα) for 15 min.
# [2] = Viscosity measurement with AR Rheometer (AR-G2) of the compounds of Examples 1-11; settings: 25° C., after allowing to stand for 12 hours
# Protocol: (§1) The amphipathic compound according to the present invention is in a liquid or a semi-solid state with low viscosity within relatively a wide temperature range. The amphipathic compound according to the present invention preferably has viscosity of 11 Pa·s or less, generally 10 Pa·s or less, more preferably 4.0 Pa·s or less (e.g., 3.5 Pa·s or less), and further preferably 2.0 Pa·s or less, as measured using a viscometer at 25° C., for example. Such measured viscosity is typically measured at a shear rate of 105.7 l/s. To obtain such a measured value, an AR Rheometer (AR-G2, TA Instrument) or a viscosity and viscoelasticity measuring apparatus MARS (Thermo Fisher Scientific K.K.) can be used as a viscometer.
# The viscosity of each of the compounds shown in the Examples 1-11 was measured using AR Rheometer (AR-G2, TA Instrument) after allowing to stand at the temperature of 25° C. for 12 hours.
# [3] = Viscosity measurement with viscosity and viscoelasticity measuring apparatus MARS (Example 179); settings: 25° C., shear velocity 105.7 s^−1, MARS
# Protocol: as §1
# The viscosities of the amphiphilic compounds synthesized above were measured at 25° C. and at a shear velocity of 105.7 s^−1 using a viscosity and viscoelasticity measuring apparatus MARS (Thermo Fisher Scientific).
Compound,Type of liquid crystal formed (SAXS peak ratio) [1],Viscosity [2] [Pa·s],Lattice constant (ac) of the cubic liquid crystal [1] [nm],Viscosity (Pas · sec) [3] [Pas · sec]
"CC(=CCCCOC[C@H](O)[C@H](O)CO)CCCC(C)CCCC(C)CCCC(C)C (some centres unmarked) [1-O-(5,9,13,17-tetramethyloctadec-4-enyl)erythritol]",reverse hexagonal liquid crystal,2.3,,
"CC(=CCCCOC(CO)C(O)CO)CCCC(C)CCCC(C)CCCC(C)C (centres unmarked) [2-O-(5,9,13,17-tetramethyloctadec-4-enyl)erythritol]",cubic liquid crystal that belong to the crystallographic space group Pn3m,3.2,8.9,
"CC(=CCCC(=O)OCC(CO)(CO)CO)CCCC(C)CCCC(C)CCCC(C)C (centres unmarked) [Example 1, mono-O-(5,9,13,17-tetramethyloctadec-4-enoyl)pentaerythritol]",cubic liquid crystal that belong to the crystallographic space group Pn3m,1.7,7.80,
"CC(=CCCC(=O)OC[C@H](O)[C@H](O)CO)CCCC(C)CCCC(C)CCCC(C)C (some centres unmarked) [Example 2, mono-O-(5,9,13,17-tetramethyloctadec-4-enoyl)erythritol]",reverse hexagonal liquid crystal,2.0,,
"CC(=CCCC(=O)OCC(O)CO)CCCC(C)CCCC(C)CCCC(C)C (centres unmarked) [Example 3, mono-O-(5,9,13,17-tetramethyloctadec-4-enoyl)glycerol]",cubic liquid crystal that belong to the crystallographic space group Pn3m,,,
"CC(=CCCCOC1OCC(O)C(O)C1O)CCCC(C)CCCC(C)CCCC(C)C [Example 9, 1-O-(5,9,13,17-tetramethyloctadec-4-enyl)-D-xylopyranoside]",cubic liquid crystal that belong to the crystallographic space group Pn3m,,8.9,
"CC(=CCCCOCC(CO)(CO)CO)CCCC(C)CCCC(C)CCCC(C)C (centres unmarked) [Example 10, mono-O-(5,9,13,17-tetramethyloctadec-4-enyl)pentaerythritol]",reverse hexagonal liquid crystal,1.9,,
"CC(=CCCCOCC(O)CO)CCCC(C)CCCC(C)CCCC(C)C (centres unmarked) [Example 31, mono-O-(5,9,13,17-tetramethyloctadec-4-enyl)glycerol]",,,,0.44
"CC(=CCCCOCC(O)COCC(O)CO)CCCC(C)CCCC(C)CCCC(C)C (centres unmarked) [Example 32, mono-O-(5,9,13,17-tetramethyloctadec-4-enyl)diglycerol]",cubic liquid crystal that belong to the crystallographic space group Pn3m,,,
"CC(=CC(=O)OCC(O)CO)CCCC(C)CCCC(C)CCCC(C)C (centres unmarked) [Example 65, mono-O-(3,7,11,15-tetramethylhexadec-2-enoyl)glycerol]",,,,1.1
"CC(=CC(=O)OCC(CO)(CO)CO)CCCC(C)CCCC(C)CCCC(C)C (centres unmarked) [Example 67, mono-O-(3,7,11,15-tetramethylhexadec-2-enoyl)pentaerythritol]",,,,10.6
"CC(=CC(=O)OCC(O)COCC(O)CO)CCCC(C)CCCC(C)CCCC(C)C (centres unmarked) [Example 68, mono-O-(3,7,11,15-tetramethylhexadec-2-enoyl)diglycerol]",,,,9.5
"CC(=CCOCC(O)CO)CCCC(C)CCCC(C)CCCC(C)C (centres unmarked) [Example 80, mono-O-(3,7,11,15-tetramethylhexadec-2-enyl)glycerol]",,,,0.45
"CC(=CCOCC(CO)(CO)CO)CCCC(C)CCCC(C)CCCC(C)C (centres unmarked) [Example 82, mono-O-(3,7,11,15-tetramethylhexadec-2-enyl)pentaerythritol]",,,,4.0
"CC(=CCCC(=O)OCC(O)CO)CCCC(C)CCCC(C)C (centres unmarked) [Example 92, mono-O-(5,9,13-trimethyltetradec-4-enoyl)glycerol]",mixture of a cubic liquid crystal that belong to the crystallographic space group Pn3m and a reverse hexagonal liquid crystal,,,0.48
"CC(=CCCC(=O)OCC(O)COCC(O)CO)CCCC(C)CCCC(C)C (centres unmarked) [Example 95, mono-O-(5,9,13-trimethyltetradec-4-enoyl)diglycerol]",,,,10.5
"CC(=CCCCOC1OCC(O)C(O)C1O)CCCC(C)CCCC(C)C [Example 103, 1-O-(5,9,13-trimethyltetradec-4-enyl)-D-xylopyranoside]",cubic liquid crystal that belong to the crystallographic space group Pn3m,,,
"CC(=CCCCOCC(O)CO)CCCC(C)CCCC(C)C (centres unmarked) [Example 107, mono-O-(5,9,13-trimethyltetradec-4-enyl)glycerol]",reverse hexagonal liquid crystal,,,
"CC(=CCCCOCC(CO)(CO)CO)CCCC(C)CCCC(C)C (centres unmarked) [Example 109, mono-O-(5,9,13-trimethyltetradec-4-enyl)pentaerythritol]",,,,0.98
"CC(=CCCCOCC(O)COCC(O)CO)CCCC(C)CCCC(C)C (centres unmarked) [Example 110, mono-O-(5,9,13-trimethyltetradec-4-enyl)diglycerol]",,,,1.7
"CC(=CCC(=O)OCC(O)CO)CCCC(C)CCCC(C)C (centres unmarked) [Example 120, mono-O-(4,8,12-trimethyltridec-3-enoyl)glycerol]",cubic liquid crystal that belong to the crystallographic space group Pn3m,,,
"CC(=CC(=O)OCC(O)CO)CCCC(C)CCCC(C)C (centres unmarked) [Example 146, mono-O-(3,7,11-trimethyldodec-2-enoyl)glycerol]",cubic liquid crystal that belong to the crystallographic space group Pn3m,,,0.45
"CC(=CC(=O)OC[C@H](O)[C@H](O)CO)CCCC(C)CCCC(C)C (some centres unmarked) [Example 147, mono-O-(3,7,11-trimethyldodec-2-enoyl)erythritol]",,,,7.1
"CC(=CC(=O)OCC(O)COCC(O)CO)CCCC(C)CCCC(C)C (centres unmarked) [Example 149, mono-O-(3,7,11-trimethyldodec-2-enoyl)diglycerol]",,,,6.9
"CC(=CCOCC(CO)(CO)CO)CCCC(C)CCCC(C)C (centres unmarked) [Example 163, mono-O-(3,7,11-trimethyldodec-2-enyl)pentaerythritol]",,,,2.7
"CC(=CCOC[C@H](O)[C@@H](O)[C@H](O)CO)CCCC(C)CCCC(C)C (some centres unmarked) [Example 166, mono-O-(3,7,11-trimethyldodec-2-enyl)xylitol]",,,,1.1
"mono-O-(5,9,13,17-tetramethyloctadec-4-enoyl)di glycerol [Example 4]",reverse hexagonal liquid crystal,,,4.5
